According to patent US20260042754A1, “Substituted Bicyclic Heteroaryl Sulfonamide Derivatives for the Treatment of Cancer” (NODUS ONCOLOGY LIMITED, priority 2022, published 2026):
Read-outs that look alike come from different tables or passages of the source.

Experiments:
[1] = target: Recombinant His-tagged human PARG protein (Homo sapiens (Human), UniProt Q86W56); assay: PARG enzymatic assay (TFMU-ADPr fluorescence); type: biochemical; conditions: 1 nM enzyme, 200 μM TFMU-ADPr, read after 30 minutes
Sequence of Recombinant His-tagged human PARG protein (Q86W56 whole entry): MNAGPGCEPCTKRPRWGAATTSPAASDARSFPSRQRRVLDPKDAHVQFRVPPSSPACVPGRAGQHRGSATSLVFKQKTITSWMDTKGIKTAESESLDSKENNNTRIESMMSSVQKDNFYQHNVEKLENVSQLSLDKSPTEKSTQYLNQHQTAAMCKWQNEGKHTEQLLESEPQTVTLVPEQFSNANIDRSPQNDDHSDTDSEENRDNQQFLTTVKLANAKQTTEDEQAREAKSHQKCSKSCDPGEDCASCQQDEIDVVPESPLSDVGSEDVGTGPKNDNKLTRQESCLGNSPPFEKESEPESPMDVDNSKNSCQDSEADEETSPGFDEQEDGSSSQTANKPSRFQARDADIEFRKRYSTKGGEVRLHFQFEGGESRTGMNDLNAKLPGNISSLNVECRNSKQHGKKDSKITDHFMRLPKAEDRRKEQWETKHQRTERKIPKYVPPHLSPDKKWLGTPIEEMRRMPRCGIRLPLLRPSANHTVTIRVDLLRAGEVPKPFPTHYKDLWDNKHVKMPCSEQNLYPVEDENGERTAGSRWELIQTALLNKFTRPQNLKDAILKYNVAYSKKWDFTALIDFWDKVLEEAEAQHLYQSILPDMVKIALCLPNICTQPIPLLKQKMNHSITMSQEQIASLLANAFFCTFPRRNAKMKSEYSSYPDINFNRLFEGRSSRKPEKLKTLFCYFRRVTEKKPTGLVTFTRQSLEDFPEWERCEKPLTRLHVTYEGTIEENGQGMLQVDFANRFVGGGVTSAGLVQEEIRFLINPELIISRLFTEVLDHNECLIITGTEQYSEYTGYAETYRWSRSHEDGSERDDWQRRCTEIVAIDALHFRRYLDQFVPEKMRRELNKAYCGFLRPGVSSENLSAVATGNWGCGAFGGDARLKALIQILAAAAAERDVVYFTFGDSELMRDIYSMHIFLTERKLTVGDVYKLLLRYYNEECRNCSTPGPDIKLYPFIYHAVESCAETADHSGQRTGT
Method in brief: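 Sf21-expressed His-tagged human PARG (1 nM) preincubated 15 min with compound (8-point series, 0.5% DMSO) in pH 7.4 phosphate/KCl/β-mercaptoethanol buffer, then 200 μM TFMU-ADPr added. Fluorescence (ex 380/em 535 nm) read after 30 min; IC50 from 4-parameter logistic fit, no-enzyme control as bottom.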

[2] = target: human PARG (PARG-NanoLuc fusion in HEK293T cells) (Homo sapiens (Human), UniProt Q86W56); assay: PARG NanoBRET-based cellular target engagement assay; type: cell-based; conditions: HEK293T cells transfected with PARG-NanoLuc, NanoBRET probe 0.89 μM, 2 hours; read-out: PARG TE IC50
Sequence of human PARG (PARG-NanoLuc fusion in HEK293T cells) (Q86W56 whole entry, the tested form may be a part): as the sequence (Q86W56 whole entry) above
Method in brief: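 HEK293T cells transiently expressing full-length human PARG with C-terminal NanoLuc, plated 24 h, then given compound (8-point series, 0.5% DMSO) for 15 min at room temperature. NanoBRET tracer added at 0.89 μM final, 2 h at 37° C.; BRET ratio (460/645 nm) fitted by 4-parameter logistic to give IC50.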

RMUG-S = assay: Modified cell proliferation assay (CellTiter-Glo), RMUG-S, Examples 12-44; type: cell-based; conditions: Examples 12-44: modified protocol, 384-well, 300 cells per well, 120 h; highest concentration tested 9000 nM; read-out: RMUG-S GI50 (high PARG dependency)
Protocol: The cell proliferation assay protocol was modified and used for RMUG-S for Examples 12-44, and subsequently used to test Examples 1-44 in the NCI-H1650 cell line.
NCI-H1650 (ATCC, #CRL-5883) or RMUG-S were seeded on day 1 at 300 cells per well in a 384-well plate (Greiner, #781080) that assure assay linearity and optimal signal intensity in 25 μL of RPMI1640 media (Pan Biotech, #P04-22100) containing 10% FCS (Capricorn, #FBS-11A; Lot. CP22-5141) and 1% Glutamine (Pan Biotech, #P04-80100). After incubation for 24 h in humidified chambers at 37° C./5% CO2, compounds/DMSO were dispensed at different concentrations using an Echo 520 (Beckman Coulter). Cells were further incubated for 120 h at 37° C. and 5% CO2. Cells treated with the compound vehicle DMSO were used as negative controls and cells treated with 10 μM Staurosporine (LC Laboratories, #S-9300) served as positive controls.
At day 6 the CellTiter Glo Reagent was prepared according to the instructions of the kit (Promega Inc.): Reagent was mixed 1:1 with cell culture medium. Thereon, mixture and assay plates were equilibrated at room temperature for 20 min. Equal volumes of the reagent-medium-mixture were added to the volume of culture medium present in each well. The plates were mixed at […] for 2 minutes on an orbital shaker (Timix5, Edmund Buehler GmbH). The microplates were then incubated at room temperature for 10 minutes for stabilization of the luminescent signal. Following incubation, the luminescence was recorded on a Victor X5 microplate reader (Perkin Elmer) using a 200 ms integration time. The data was then analyzed with Excel using the XLFIT Plugin (dose response Fit 205) for determination of the concentration necessary for half-maximal inhibition (i.e. the inflection point of the fitted curve).
As quality control the Z′-factor was calculated from 16 positive and negative control values. Only assay results showing a Z′-factor≥0.5 were used for further analysis.

NCI-H1650 = assay: Modified cell proliferation assay (CellTiter-Glo), NCI-H1650; type: cell-based; conditions: modified protocol, 384-well, 300 cells per well, 120 h, highest concentration tested 30000 nM, read-out: NCI-H1650 GI50 (high PARG dependency)
Method in brief: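 NCI-H1650 or RMUG-S cells seeded at 300 cells/well in RPMI1640 with 10% FCS, compounds added after 24 h, then 120 h at 37 °C/5% CO2. Viability read by CellTiter-Glo luminescence; IC50 from fitted dose-response inflection point. Z′≥0.5 required.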

Row | SMILES | IC50 [1] | IC50 [2] | GI50 (RMUG-S) | GI50 (NCI-H1650; Homo sapiens, NCI-H1650) | GI50 (NCI-H1650)
1 | CO/N=c1\[nH]c2c(N3CCN(C)[C@H](C)C3)cc(S(=O)(=O)NC3(C)CC3)cc2c(=O)n1Cc1cnn(C)c1 [Example 21, (2E)-2-methoxyimino-N-(1-methylcyclopropyl)-3-[(1-methylpyrazol-4-yl)methyl]-4-oxo-8-[(3R)-3,4-dimethylpiperazin-1-yl]-1H-quinazoline-6-sulfonamide] | < 30 nM | 30 to 99 nM | 500 to 2000 nM | 500 to 2000 nM | 
2 | CO/N=c1\[nH]c2c(C3CCN(C(=O)C4(C)CC4)[C@H](C)C3)cc(S(=O)(=O)NC3(C)CC3)cc2c(=O)n1Cc1cnn(C)c1 (stereo partly drawn) [Example 27, (2E)-2-methoxyimino-N-(1-methylcyclopropyl)-3-[(1-methylpyrazol-4-yl)methyl]-4-oxo-8-[(2R)-2-methyl-1-(1-methylcyclopropanecarbonyl)-4-piperidyl]-1H-quinazoline-6-sulfonamide] | < 30 nM | < 30 nM | < 500 nM | < 500 nM | 
3 | CO/N=c1\[nH]c2c(C3CCN(C)[C@H](C)C3)cc(S(=O)(=O)NC3(C)CC3)cc2c(=O)n1Cc1cnn(C)c1 (stereo partly drawn) [Example 25, (2E)-2-methoxyimino-N-(1-methylcyclopropyl)-3-[(1-methylpyrazol-4-yl)methyl]-4-oxo-8-[(2R)-1,2-dimethyl-4-piperidyl]-1H-quinazoline-6-sulfonamide] | < 30 nM | 30 to 99 nM | 500 to 2000 nM | 500 to 2000 nM | 
4 | CO/N=c1\[nH]c2c(C3=C[C@@H](C)N(C)CC3)cc(S(=O)(=O)NC3(C)CC3)cc2c(=O)n1Cc1cnn(C)c1 [Example 28, (2E)-2-methoxyimino-N-(1-methylcyclopropyl)-3-[(1-methylpyrazol-4-yl)methyl]-4-oxo-8-[(2R)-1,2-dimethyl-3,6-dihydro-2H-pyridin-4-yl]-1H-quinazoline-6-sulfonamide/(2E)-2-methoxyimino-N-(1-methylcyclopropyl)-3-[(1-methylpyrazol-4-yl)methyl]-4-oxo-8-[(6R)-1,6-dimethyl-3,6-dihydro-2H-pyridin-4-yl]-1H-quinazoline-6-sulfonamide] | < 30 nM | < 30 nM | 500 to 2000 nM |  | < 500 nM
